# Measured values published in US6399629B1, “Efflux pump inhibitors” (priority 1998, dated 2002).
# Test system: Pseudomonas aeruginosa PAM1001
# Assay: checkerboard assay (broth microdilution): levofloxacin MIC in presence of efflux pump inhibitor
# Assay type: cell-based
# Outline: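 Reduction of levofloxacin MIC by an efflux pump inhibitor measured against Pseudomonas aeruginosa PAM1001. Each microdilution well held a unique combination of levofloxacin and inhibitor (max 40 μg/mL) in MHB, inoculum 5×10^5 CFU/mL. Readout after 20 h, 35° C: OD650 plus visual inspection.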
Molecule,"Levofloxacin MIC Against P. aerugiuosa PAM1001 in Presence of Efflux Pump Inhibitor (EPI), Minimum Inhibitory Concentration (EPI Conc. 0 μg/mL) [mg/L]","Levofloxacin MIC Against P. aerugiuosa PAM1001 in Presence of Efflux Pump Inhibitor (EPI), Minimum Inhibitory Concentration (EPI Conc. 0.625 μg/mL) [mg/L]","Levofloxacin MIC Against P. aerugiuosa PAM1001 in Presence of Efflux Pump Inhibitor (EPI), Minimum Inhibitory Concentration (EPI Conc. 1.25 μg/mL) [mg/L]","Levofloxacin MIC Against P. aerugiuosa PAM1001 in Presence of Efflux Pump Inhibitor (EPI), Minimum Inhibitory Concentration (EPI Conc. 2.5 μg/mL) [mg/L]","Levofloxacin MIC Against P. aerugiuosa PAM1001 in Presence of Efflux Pump Inhibitor (EPI), Minimum Inhibitory Concentration (EPI Conc. 5 μg/ mL) [mg/L]","Levofloxacin MIC Against P. aerugiuosa PAM1001 in Presence of Efflux Pump Inhibitor (EPI), Minimum Inhibitory Concentration (EPI Conc. 10 μg/mL) [mg/L]","Levofloxacin MIC Against P. aerugiuosa PAM1001 in Presence of Efflux Pump Inhibitor (EPI), Minimum Inhibitory Concentration (EPI Conc. 20 μg/mL) [mg/L]","Levofloxacin MIC Against P. aerugiuosa PAM1001 in Presence of Efflux Pump Inhibitor (EPI), Minimum Inhibitory Concentration (EPI Conc. 40 μg/mL) [mg/L]"
COc1cc(C)c2ncc(NC(=O)[C@@H](CCc3ccccc3)NC(=O)[C@@H]3C[C@@H](NC(=O)CN)CN3)cc2c1 [Compound M22],4,4,4,4,4,0.50,0.03,0.015
"NC[C@@H]1CN[C@@H](C(=O)N[C@H](CCc2ccccc2)C(=O)Nc2cccc3cccnc23)C1 [Compound M30, (2R,4R)-4-(Aminomethyl)-N-[(1R)-3-pheyl-1-(8-quinolylcarbamoyl)propyl]-2-pyrrolidinecarboxamide]",4,4,4,4,4,2,0.03,0.015
"Cc1ccc2ncc(C(=O)NC[C@@H](CCc3ccccc3)NC(=O)[C@H]3C[C@H](CN)CN3)cc2c1 [Compound M63, (2R,4R)-4-(Aminomethyl)-N-[(1R)-3-phenyl-1-[(6-methyl-3-quinolylcarboxamido)methyl]propyl]-2-pyrrolidinecaroxamide]",4,4,4,4,2,1,0.008,0.015
"NCC(=O)N[C@H]1CN[C@H](C(=O)NCc2nc3cc(C(O)c4ccccc4)ccc3[nH]2)C1 (stereo partly drawn) [Compound M82, (2S,4R)-4-(2-Aminoacetamido)-N-[(5-(1-hydroxy-1-phenyl)methyl-2-benzimidazolyl)methyl]-2-pyrrolidinecarboxaniide]",4,4,4,2,1,0.25,0.125,0.06
"NC[C@@H]1CN[C@@H](COc2ccc3ccccc3n2)C1 [Compound M71, (2R,4R)-4-(Aminomethyl)-2 (2-quiolyloxymethyl)pyrrolidne]",4,4,4,4,4,4,2,0.5
"NCC(=O)N[C@H]1CN[C@H](C(=O)N[C@H](Cc2ccc(F)cc2)C(=O)Nc2cnc3ccccc3c2)C1 [Compound M21, (2S,4R)-4-(2-Aminoacetamido)-N-[(1R)-2-(4-fluorophenyl)-1-(3-quinolylcarbamoyl)ethyl]-2-pyrrolidnecarboxamide]",4,4,4,2,2,0.25,0.06,0.015
N[C@H]1CN[C@H](C(=O)N[C@H](CCc2ccccc2)C(=O)Nc2cnc3ccccc3c2)C1 [Compound M7],4,4,4,4,4,4,4,0.06
"(2R,4R)-4-(Aminomethyl)-N-(2-phenylethyl)-N-(3-quinolylcarbamoyl)ethyl]-2-pyrrolidinecarboxamide [Compound M45]",4,4,4,1,0.50,0.03,0.015,0.015
"(2S,4R)-4-(2-Aminoacetamideo)-N-(2-phenylethyl)-N-(3-quinolylcarbamoyl)ethyl]-2-pyrrolidinecarboxamide [Compound M43]",4,4,4,2,0.25,0.125,0.125,0.06
"NCC(=O)N[C@H]1CN[C@H](C(=O)NCc2nc3cc(Cc4ccccc4)ccc3[nH]2)C1 [Compound M79, (2S,4R)-4-(2-Aminoacetamido)-N-[(5-benzyl-2-benzimidazolyl)methyl]-2-pyrrolidinexarboxamide]",4,4,4,4,4,2,1,0.125
"CC(C)C[C@@H](NC(=O)[C@H]1C[C@H](CN)CN1)C(=O)Nc1cnc2ccccc2c1 [Compound M34, (2R,4R)-4-(Aminomethyl)-N-[(1R)-3-methyl-1-(3-quinolylcarbamoly)butyl]-2-pyrrolidinecarboxamide]",4,4,4,4,4,2,1,0.5
